Reference: patent publication US20210122730A1, “GLUCOCORTICOID RECEPTOR MODULATORS” (ORIC Pharmaceuticals, Inc., priority 2017, published 2021)
pIC50: −log10 of the molar value.

Target: T1, PR (Homo sapiens, UniProt P06401)
T1 construct: expressed in transfected cells; host or cells: CHO-K1
T1 sequence (P06401 1-933): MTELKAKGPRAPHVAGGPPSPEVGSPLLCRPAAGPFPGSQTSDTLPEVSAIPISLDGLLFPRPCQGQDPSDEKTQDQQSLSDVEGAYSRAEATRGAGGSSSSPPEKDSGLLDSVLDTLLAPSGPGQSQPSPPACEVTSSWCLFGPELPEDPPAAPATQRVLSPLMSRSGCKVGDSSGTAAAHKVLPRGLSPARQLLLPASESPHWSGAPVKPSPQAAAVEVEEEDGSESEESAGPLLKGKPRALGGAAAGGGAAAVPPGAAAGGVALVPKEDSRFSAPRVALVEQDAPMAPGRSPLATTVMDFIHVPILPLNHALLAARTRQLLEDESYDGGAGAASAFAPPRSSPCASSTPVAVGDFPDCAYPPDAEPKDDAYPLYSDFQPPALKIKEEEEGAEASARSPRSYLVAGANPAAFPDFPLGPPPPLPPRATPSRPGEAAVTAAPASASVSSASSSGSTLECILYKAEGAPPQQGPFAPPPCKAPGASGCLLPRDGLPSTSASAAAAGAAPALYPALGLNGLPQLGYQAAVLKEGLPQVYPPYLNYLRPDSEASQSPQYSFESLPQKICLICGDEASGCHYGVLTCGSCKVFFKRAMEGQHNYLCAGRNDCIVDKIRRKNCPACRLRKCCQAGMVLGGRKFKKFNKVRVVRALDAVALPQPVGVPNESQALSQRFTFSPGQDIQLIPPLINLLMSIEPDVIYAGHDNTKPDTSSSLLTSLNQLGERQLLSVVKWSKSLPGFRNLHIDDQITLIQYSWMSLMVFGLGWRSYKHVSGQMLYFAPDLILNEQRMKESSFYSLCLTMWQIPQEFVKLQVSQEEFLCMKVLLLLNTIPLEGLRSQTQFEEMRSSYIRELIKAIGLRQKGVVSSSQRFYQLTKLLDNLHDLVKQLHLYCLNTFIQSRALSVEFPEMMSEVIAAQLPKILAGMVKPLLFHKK
Test: In Vitro PR Luciferase Reporter Assay (antagonist mode, CHO-K1-PR-MMTV-Luc reporter cells)
Format: cell-based
Conditions: antagonist assay with 20 nM Progesterone, 18-24 hours, read-out: PR antagonism IC50
From the text: Example C: In Vitro PR Luciferase Reporter Assay
Cell Line: CHO-KI-PR-MMTV-Luc reporter cells
Culture Media: DMEM (with phenol red)+1000FBS
Assay Media: DMEM (without phenol red)+1000CSS
Culture CHO-Kl-PR-MMTV-Luc reporter cells in 15 cm plates in Culture Media at conditions less than 90% confluence.
Prepared 200×DMSO 1:8 serial dilutions of control and test compounds in 96-well non-sterile V bottom plate in DMSO, 8 serial dilutions for each compound.
Prepared 5× Assay Media diluted compound serial dilutions in 96-well non-sterile V bottom plate: Add 97.5 μL/well of Assay Media into 96-well then add 2.5 μl of 200× concentration of compounds and mix well.
Added compounds: 5 μl of assay media diluted compounds were added to appropriate wells and followed a quick spin (1000 rpm, 10 sec) to bring media and cells to the bottom of plate. The plates were covered with SealMate film to avoid evaporation and placed in 37° C. incubator for approximately 18-24 hours.
Read plates: Equilibrated appropriate amount of Promega One-Glo luciferase reagent to room temperature. Removed the plates from incubator and added 25 μL of One-Glo luciferase reagent/well by multiple channel pipette and read the plates with Tecan F500 luminometer within 3 minutes.
The ability of exemplary compounds disclosed herein to inhibit PR activity was quantified and the respective IC50 value was determined. Table 4 provides the cellular IC50 values of exemplary compounds disclosed herein.

Compound	pIC50
Cn1cc(S(=O)(=O)C[C@H]2CCC3=Cc4c(cnn4-c4ccc(F)cc4)C[C@]3(C(=O)c3cc(C(F)(F)F)ccn3)C2)cn1 (single isomer, unassigned) [Example 118]	< 5.30
CN([C@H]1CCC2=Cc3c(cnn3-c3ccc(F)cc3)C[C@]2(C(=O)c2cc(C(F)(F)F)ccn2)C1)S(=O)(=O)c1ccc(F)cc1 [Example 5, 4-Fluoro-N-((4aS,6S)-1-(4-fluorophenyl)-4a-(4-(trifluoromethyl)picolinoyl)-4,4a,5,6,7,8-hexahydro-1H-benzo[f]indazol-6-yl)-N-methylbenzenesulfonamide]	< 5.30
Cn1cc(S(=O)(=O)N(C2CC2)[C@H]2CCC3=Cc4c(cnn4-c4ccc(F)cc4)C[C@]3(C(=O)c3cc(C(F)(F)F)ccn3)C2)cn1 [Example 88, N-cyclopropyl-N-((4aS,6S)-1-(4-fluorophenyl)-4a-(4-(trifluoromethyl)picolinoyl)-4,4a,5,6,7,8-hexahydro-1H-benzo[f]indazol-6-yl)-1-methyl-1H-pyrazole-4-sulfonamide]	< 5.30
CN([C@H]1CCC2=Cc3c(cnn3-c3ccc(F)cc3)C[C@]2(C(=O)c2cc(C(F)(F)F)ccn2)C1)S(=O)(=O)c1ccn(C)n1 [Example 98, N-((4aS,6S)-1-(4-fluorophenyl)-4a-(4-(trifluoromethyl)picolinoyl)-4,4a,5,6,7,8-hexahydro-1H-benzo[f]indazol-6-yl)-N,1-dimethyl-1H-pyrazole-3-sulfonamide]	5.46
Cn1cc(S(=O)(=O)N(CC2CC2)[C@H]2CCC3=Cc4c(cnn4-c4ccc(F)cc4)C[C@]3(C(=O)c3cc(C(F)(F)F)ccn3)C2)cn1 [Example 103, N-(cyclopropylmethyl)-N-((4aS,6S)-1-(4-fluorophenyl)-4a-(4-(trifluoromethyl)picolinoyl)-4,4a,5,6,7,8-hexahydro-1H-benzo[f]indazol-6-yl)-1-methyl-1H-pyrazole-4-sulfonamide]	< 5.30
Cn1ccc(S(=O)(=O)N(CC(F)(F)F)[C@H]2CCC3=Cc4c(cnn4-c4ccc(F)cc4)C[C@]3(C(=O)c3cc(C(F)(F)F)ccn3)C2)n1 [Example 111, N-((4aS,6S)-1-(4-Fluorophenyl)-4a-(4-(trifluoromethyl)picolinoyl)-4,4a,5,6,7,8-hexahydro-1H-benzo[f]indazol-6-yl)-1-methyl-N-(2,2,2-trifluoroethyl)-1H-pyrazole-3-sulfonamide]	< 5.30
Cn1ccc(S(=O)(=O)[C@H]2CCC3=Cc4c(cnn4-c4ccc(F)cc4)C[C@]3(C(=O)c3cc(C(F)(F)F)ccn3)C2)n1 [Example 113, ((4aS,6S)-1-(4-Fluorophenyl)-6-((1-methyl-1H-pyrazol-3-yl)sulfonyl)-1,4,5,6,7,8-hexahydro-4aH-benzo[f]indazol-4a-yl)(4-(trifluoromethyl)pyridin-2-yl)methanone]	< 5.30
Cn1ccc(S(=O)(=O)N(C2CC2)[C@H]2CCC3=Cc4c(cnn4-c4ccc(F)cc4)C[C@]3(C(=O)c3cc(C(F)(F)F)ccn3)C2)n1 [Example 138, N-cyclopropyl-N-((4aS,6S)-1-(4-fluorophenyl)-4a-(4-(trifluoromethyl)picolinoyl)-4,4a,5,6,7,8-hexahydro-1H-benzo[f]indazol-6-yl)-1-methyl-1H-pyrazole-3-sulfonamide]	< 5.30
O=C(c1ncc(C(F)(F)F)s1)[C@]12Cc3cnn(-c4ccc(F)cc4)c3C=C1CC[C@H](N(C1CC1)S(=O)(=O)c1ccc(F)cc1)C2 [Example 177, N-cyclopropyl-4-fluoro-N-((4aS,6S)-1-(4-fluorophenyl)-4a-(5-(trifluoromethyl)thiazole-2-carbonyl)-4,4a,5,6,7,8-hexahydro-1H-benzo[f]indazol-6-yl)benzenesulfonamide]	< 5.30
Cn1ccc(S(=O)(=O)N(CC2CC2)[C@H]2CCC3=Cc4c(cnn4-c4ccc(F)cc4)C[C@]3(C(=O)c3ncc(C(F)(F)F)s3)C2)n1 [Example 179, N-(cyclopropylmethyl)-N-((4aS,6S)-1-(4-fluorophenyl)-4a-(5-(trifluoromethyl)thiazole-2-carbonyl)-4,4a,5,6,7,8-hexahydro-1H-benzo[f]indazol-6-yl)-1-methyl-1H-pyrazole-3-sulfonamide]	< 5.30
CC(C)N([C@H]1CCC2=Cc3c(cnn3-c3ccc(F)cc3)C[C@]2(C(=O)c2cc(C(F)(F)F)ccn2)C1)S(=O)(=O)c1ccn(C)n1 [Example 186, N-((4aS,6S)-1-(4-fluorophenyl)-4a-(4-(trifluoromethyl)picolinoyl)-4,4a,5,6,7,8-hexahydro-1H-benzo[f]indazol-6-yl)-N-isopropyl-1-methyl-1H-pyrazole-3-sulfonamide]	< 5.30
CC(C)N(C(=O)c1cnn(C)c1)[C@H]1CCC2=Cc3c(cnn3-c3ccc(F)cc3)C[C@]2(C(=O)c2ncc(C(F)(F)F)s2)C1 [Example 211, N-((4aS,6S)-1-(4-fluorophenyl)-4a-(5-(trifluoromethyl)thiazole-2-carbonyl)-4,4a,5,6,7,8-hexahydro-1H-benzo[f]indazol-6-yl)-N-isopropyl-1-methyl-1H-pyrazole-4-carboxamide]	< 5.30
Cn1ccc(S(=O)(=O)N(C2CC(F)(F)C2)[C@H]2CCC3=Cc4c(cnn4-c4ccc(F)cc4)C[C@]3(C(=O)c3cc(C(F)(F)F)ccn3)C2)n1 [Example 227, N-(3,3-difluorocyclobutyl)-N-((4aS,6S)-1-(4-fluorophenyl)-4a-(4-(trifluoromethyl)picolinoyl)-4,4a,5,6,7,8-hexahydro-1H-benzo[f]indazol-6-yl)-1-methyl-1H-pyrazole-3-sulfonamide]	< 5.30
O=C(c1cc(Cl)ccn1)[C@]12Cc3cnn(-c4ccc(F)cc4)c3C=C1CC[C@H](N(C1CC1)S(=O)(=O)c1ccc(F)cc1)C2 [Example 232, N-((4aS,6S)-4a-(4-chloropicolinoyl)-1-(4-fluorophenyl)-4,4a,5,6,7,8-hexahydro-1H-benzo[f]indazol-6-yl)-N-cyclopropyl-4-fluorobenzenesulfonamide]	< 5.30
Cn1cc(S(=O)(=O)N(CC(C)(C)O)[C@H]2CCC3=Cc4c(cnn4-c4ccc(F)cc4)C[C@]3(C(=O)c3cc(F)ccn3)C2)cn1 [Example 248, N-((4aS,6S)-1-(4-fluorophenyl)-4a-(4-fluoropicolinoyl)-4,4a,5,6,7,8-hexahydro-1H-benzo[f]indazol-6-yl)-N-(2-hydroxy-2-methylpropyl)-1-methyl-1H-pyrazole-4-sulfonamide]	< 5.30
Cn1ccc(S(=O)(=O)N(C2CC(F)(F)C2)[C@H]2CCC3=Cc4c(cnn4-c4ccc(F)cc4)C[C@]3(C(=O)c3ncc(C(F)(F)F)s3)C2)n1 [Example 270, N-(3,3-difluorocyclobutyl)-N-((4aS,6S)-1-(4-fluorophenyl)-4a-(5-(trifluoromethyl)thiazole-2-carbonyl)-4,4a,5,6,7,8-hexahydro-1H-benzo[f]indazol-6-yl)-1-methyl-1H-pyrazole-3-sulfonamide]	5.44
Cn1ccc(S(=O)(=O)N([C@H]2CCC3=Cc4c(cnn4-c4ccc(F)cc4)C[C@]3(C(=O)c3ncc(C(F)(F)F)s3)C2)[C@H]2C[C@@](C)(O)C2)n1 [Example 277, N-((4aS,6S)-1-(4-fluorophenyl)-4a-(5-(trifluoromethyl)thiazole-2-carbonyl)-4,4a,5,6,7,8-hexahydro-1H-benzo[f]indazol-6-yl)-N-((1s,3R)-3-hydroxy-3-methylcyclobutyl)-1-methyl-1H-pyrazole-3-sulfonamide]	< 5.30
